From article PMC9821843, “Powerful Potential of Polyfluoroalkyl-Containing 4-Arylhydrazinylidenepyrazol-3-ones for Pharmaceuticals” (Molecules, 2022)
Marks after values point to notes of the source that are not given here.

Assays:
[1] = Ferric reducing antioxidant power (FRAP) assay; settings: 20 μM; n.a. = inactive
Source text: The FRAP assay measures the ability of anti-oxidants to reduce the ferric 2,4,6-tripyridyl-s-triazine complex [Fe(TPTZ)2]^3+ to the intensely blue ferrous colored complex [Fe(TPTZ)2]^2+ with an absorption maximum at λ = 593 nm. The reducing ability of a compound is an indicator of its potential anti-oxidant activity. 2,4,6-Tris(pyridin-2-yl)-1,3,5-triazine (TPTZ), FeCl3·6H2O, Trolox and DMSO were obtained from Sigma-Aldrich Chemical Co (St. Louis, MO, USA).
The ferric reducing ability of the compounds was determined by the method in microplate adapted version described in [116]. The FRAP reagent was prepared by mixing acetate buffer (0.3 M, pH 3.6), TPTZ (10 mM in 40 mM HCl) and FeCl3·6H2O (20 mM in distilled water) in a ratio of 10:1:1 immediately before use. Compounds were dissolved in DMSO and tested in the concentration 20 μM. The solvent content in the reaction mixture was 4% (v/v). The test compounds (10 μL of 0.5 mM solution) were added to the FRAP reagent solution (240 μL) and mixed thoroughly. The reaction was carried out at 37 °C in the dark; the incubation time was 1 h. The absorbance at 600 nm was monitored spectrophotometrically by a FLUOStar OPTIMA microplate reader (BMG Labtech, Ortenberg, Germany) at 37 °C. Trolox was used as a reference compound. Values were obtained from four replicates of each sample in three independent experiments.
The ferric reducing ability of compounds was expressed as TE units (antioxidant activity in Trolox equivalent), the values calculated as the ratio of the concentrations of Trolox and the test compound resulting in the same effect. The calculations were carried out using Origin 6.1 for Windows. Results were presented as mean ± SEM, calculated using GraphPad Prism version 6.05 for Windows, GraphPad Software.

Vero cells = assay: Live cell visualization (fluorescent staining, confocal microscopy); assay type: cell-based, African green monkey; settings: 1 × 10^–4 M, laser excitation
Source text: Tartrazine, having 4-(4-sulfonatophenylazo)-5-pyrazolone moiety, is widely used as a synthetic lemon-yellow azo dye for food coloring. Many reports about the pyrazolone-based dyes for different purposes have been published to date. However, there are no reports describing 4-AHPs’ use for the biovisualization of living cells. In this work, we studied the potential of compounds 5f, 6a, 9a for the fluorescent visualization of the Vero cell structure (African green monkey kidney epithelium). Cells stained with the compound at a concentration of 1 × 10^–4 M in DMEM were examined using an LSM-710 laser scanning confocal microscope.
The suitability of substances for fluorescent imaging of cellular structures was studied on Vero cell culture (African green monkey kidney epithelium) and CHO (Chinese hamster ovary). The culture is supported in DMEM (Gibco, Uoltem, USA) with addition of 10% fetal bovine serum (Gibco, Uoltem, USA) and a mixture of gentamicin and streptomycin (Biolot, Moscow, Russia).
The cells were cultivated into specialized Petri dishes with a glass bottom for staining. Staining was carried out with substances at a concentration of 1 × 10^–4 M. For that, the solution of substances was preliminarily diluted with DMSO (Biolot, Moscow, Russia) to a concentration of 1 × 10^–3 M and then with DMEM to the required concentration. Incubation with the substance was carried out for half an hour in an incubator, in the dark at a temperature of 37 °C. […]
The stained cells with the substance were examined using an LSM-710 laser scanning confocal microscope (Carl Zeiss, Oberkochen, Germany). […] Fluorescence was excited by lasers with different wavelengths and registered in lambda mode. This mode gets to collect a full spectrum image by analyzing the intensity of fluorescence in different ranges. […] Taking images in this mode also makes it possible to obtain the fluorescence spectrum of the test substance in the cell. However, a confocal microscope is not a spectrofluorometer and the resulting spectra can have very poor quality, especially at low fluorescence intensity.

Sprague-Dawley rats = assay: Carrageenan-induced paw edema model (anti-inflammatory activity); assay type: in vivo; settings: ip
Description: Anti-inflammatory activity was studied in Sprague-Dawley rats (3 male and 3 female animals per group) by using the common carrageenan-induced paw edema model. The investigated compounds in 1% starch mucilage were intraperitoneally administered at the corresponding dose to a treated group of rodents 30 min before the injection of 0.1 mL of freshly prepared 1% carrageenan (λ-carrageenan, type IV; Sigma Aldrich, an affiliate of Merck KGaA, Darmstadt, Germany) solution in the right hind paw plantar surface. The negative control group was treated with 1% starch mucilage solution only. Diclofenac sodium (10 mg/kg in 1% starch mucilage solution) was used as a reference drug. Paw volumes were measured oncometrically with water plethysmometer (TSE Volume Meter, Bad Homburg, Germany) before carrageenan administration (“zero time”) and at 1st, 3rd, 5th and 24th h after its injection. An anti-inflammatory activity of the sample at a certain time point was calculated in two steps. First, the percentage of an edema increment (i.e., relative volume change for the inflamed paw vs. “zero time” value) both in the negative control group (Pc) and in the treated group (Ptr) were calculated for this time point for each animal. The difference between treated and control group was considered significant at p < 0.05. Then, for such cases, swelling inhibition was calculated according to the formula: 100% (Pc − Ptr)/Pc and considered as a measure of anti-inflammatory activity of the sample.

Compound	FRAP (TE, antioxidant activity in Trolox equivalents) [1]	acute phototoxicity during cell visualization (Vero cells)	further results
O=C1NN=C(C(F)(F)F)/C1=N/Nc1ccccc1 [5a, (Z)-4-(2-Phenylhydrazinylidene)-5-(trifluoromethyl)-2,4-dihydro-3H-pyrazol-3-one]	0.09 ± 0.01		
Cc1ccc(N/N=C2\C(=O)NN=C2C(F)(F)F)cc1 [5b, (4Z)-4-[2-(4-Methylphenyl)hydrazinylidene]-5-(trifluoromethyl)-2,4-dihydro-3H-pyrazol-3-one]	0.05 ± 0.02		
Cc1ccc(N/N=C2\C(=O)N(c3ccccc3)N=C2C(F)(F)F)cc1 [5f, (4Z)-4-[2-(4-Methylphenyl)hydrazinylidene]-2-phenyl-5-(trifluoromethyl)-2,4-dihydro-3H-pyrazol-3-one]		No acute phototoxicity	Inhibition of Paw Edema Development Comparing to Control, after 5 h (Sprague-Dawley rats; dose 15 mg/kg, n.a. = inactive): 30.9 * %
CS(=O)(=O)c1ccc(N/N=C2\C(=O)N(c3ccccc3)N=C2C(F)(F)F)cc1 [5m, (4Z)-4-(2-[4-(Methylsulfonyl)phenyl]hydrazinylidene)-2-phenyl-5-(trifluoromethyl)-2,4-dihydro-3H-pyrazol-3-one]			Inhibition of Paw Edema Development Comparing to Control, after 1 h (Sprague-Dawley rats; dose 25 mg/kg): 49.0 ** %; Inhibition of Paw Edema Development Comparing to Control, after 3 h (Sprague-Dawley rats; dose 25 mg/kg): 44.3 * %; Inhibition of Paw Edema Development Comparing to Control, after 5 h (Sprague-Dawley rats; dose 25 mg/kg): 35.3 * %
Cc1ccc(N/N=C2\C(=O)NN=C2C(F)(F)C(F)(F)F)cc1 [6a, (4Z)-4-[2-(4-Methylphenyl)hydrazinylidene]-5-(pentafluoroethyl)-2,4-dihydro-3H-pyrazol-3-one]	0.15 ± 0.02	No acute phototoxicity	
CC1=NNC(=O)/C1=N\Nc1ccc(C)cc1 [9a, (4Z)-5-Methyl-4-[2-(4-methylphenyl)hydrazinylidene]-2,4-dihydro-3H-pyrazol-3-one]	0.51 ± 0.01	No acute phototoxicity	
CC1=NN(c2ccccc2)C(=O)/C1=N\Nc1ccc(C)cc1 [9b, (4Z)-5-Methyl-4-[2-(4-methylphenyl)hydrazinylidene]-2-phenyl-2,4-dihydro-3H-pyrazol-3-one]	0.11 ± 0.01		
